Assay results: patent publication US8754242B2, “Herbicides” (Syngenta Crop Protection LLC, priority 2007, dated 2014)

What was measured:
Assay type in all cases: in vivo
[1] = test system: Alopecurus myosuroides (ALOMY); assay: Test Example 1 post-emergence herbicidal activity; settings: 360 h, rate 125 g/ha, evaluated 15 days later, read-out: Post-emergence activity ALOMY (100=total damage to plant; 0=no damage to plant)
Method: (§1) Monocotyledonous and dicotyledonous test plants were sown in standard soil in pots. After cultivation for one day (pre-emergence) or after 10 days cultivation (post-emergence) under controlled conditions in a glasshouse, the plants were sprayed with an aqueous spray solution derived from the formulation of the technical active ingredient in 0.6 ml acetone and 45 ml formulation solution containing 10.6% Emulsogen EL (Registry number 61791-12-6), 42.2% N-methylpyrrolidone, 42.2% dipropylene glycol monomethyl ether (Registry number 34590-94-8) and 0.2% X-77 (Registry number 11097-66-8). The test plants were then grown in a greenhouse under optimum conditions until, 15 days later for post-emergence and 20 days for pre-emergence, the test was evaluated (100=total damage to plant; 0=no damage to plant).
(§2) Alopecurus myosuroides (ALOMY), Avena fatua (AVEFA), Lolium perenne (LOLPE), Setaria faberi (SETFA), Digitaria sanguinalis (DIGSA), Echinochloa crus-galli (ECHCG)

Setaria faberi (SETFA) [2] = assay: Test Example 1 post-emergence herbicidal activity; settings: 360 h, rate 125 g/ha, evaluated 15 days later, read-out: Post-emergence activity SETFA (100=total damage to plant; 0=no damage to plant)
Method: as §1, §2

[3] = test system: Digitaria sanguinalis (DIGSA); assay: Test Example 1 post-emergence herbicidal activity; settings: 360 h, rate 125 g/ha, evaluated 15 days later, read-out: Post-emergence activity DIGSA (100=total damage to plant; 0=no damage to plant)
Method: as §1, §2

Lolium perenne (LOLPE) [4] = assay: Test Example 1 post-emergence herbicidal activity; settings: 360 h, rate 125 g/ha, evaluated 15 days later, read-out: Post-emergence activity LOLPE (100=total damage to plant; 0=no damage to plant)
Method: as §1, §2

[5] = test system: Echinochloa crus-galli (ECHCG); assay: Test Example 1 post-emergence herbicidal activity; settings: 360 h, rate 125 g/ha, evaluated 15 days later, read-out: Post-emergence activity ECHCG (100=total damage to plant; 0=no damage to plant)
Method: as §1, §2

Avena fatua (AVEFA) [6] = assay: Test Example 1 post-emergence herbicidal activity; settings: 360 h, rate 125 g/ha, evaluated 15 days later, read-out: Post-emergence activity AVEFA (100=total damage to plant; 0=no damage to plant)
Method: as §1, §2

[7] = test system: Alopecurus myosuroides (ALOMY); assay: Test Example 1 pre-emergence herbicidal activity; settings: rate 250 g/ha, evaluated 20 days later; for pest or weed control at 250 g/ha: Alopecurus myosuroides, 480 h, read-out: Pre-emergence activity ALOMY (100=total damage to plant; 0=no damage to plant)
Method: as §1, §2

Setaria faberi (SETFA) [8] = assay: Test Example 1 pre-emergence herbicidal activity; settings: Setaria faberi, 480 h, rate 250 g/ha, evaluated 20 days later, read-out: Pre-emergence activity SETFA (100=total damage to plant; 0=no damage to plant)
Method: as §1, §2

[9] = test system: Digitaria sanguinalis (DIGSA); assay: Test Example 1 pre-emergence herbicidal activity; settings: Digitaria sanguinalis, 480 h, rate 250 g/ha, evaluated 20 days later, read-out: Pre-emergence activity DIGSA (100=total damage to plant; 0=no damage to plant)
Method: as §1, §2

Lolium perenne (LOLPE) [10] = assay: Test Example 1 pre-emergence herbicidal activity; settings: Lolium perenne, 480 h, rate 250 g/ha, evaluated 20 days later, read-out: Pre-emergence activity LOLPE (100=total damage to plant; 0=no damage to plant)
Method: as §1, §2

[11] = test system: Echinochloa crus-galli (ECHCG); assay: Test Example 1 pre-emergence herbicidal activity; settings: Echinochloa crus-galli, 480 h, rate 250 g/ha, evaluated 20 days later, read-out: Pre-emergence activity ECHCG (100=total damage to plant; 0=no damage to plant)
Method: as §1, §2

Avena fatua (AVEFA) [12] = assay: Test Example 1 pre-emergence herbicidal activity; settings: rate 250 g/ha, evaluated 20 days later; for pest or weed control at 250 g/ha: Avena fatua, 480 h, read-out: Pre-emergence activity AVEFA (100=total damage to plant; 0=no damage to plant)
Method: as §1, §2

SMILES | pest or weed control at 125 g/ha [1] [%] | pest or weed control at 125 g/ha (Setaria faberi (SETFA) [2]) [%] | pest or weed control at 125 g/ha [3] [%] | pest or weed control at 125 g/ha (Lolium perenne (LOLPE) [4]) [%] | pest or weed control at 125 g/ha [5] [%] | pest or weed control at 125 g/ha (Avena fatua (AVEFA) [6]) [%] | pest or weed control at 250 g/ha [7] [%] | pest or weed control at 250 g/ha (Setaria faberi (SETFA) [8]) [%] | pest or weed control at 250 g/ha [9] [%] | pest or weed control at 250 g/ha (Lolium perenne (LOLPE) [10]) [%] | pest or weed control at 250 g/ha [11] [%] | pest or weed control at 250 g/ha (Avena fatua (AVEFA) [12]) [%] | Pre-emergence activity ALOMY (100=total damage to plant; 0=no damage to plant) [7] | Pre-emergence activity AVEFA (100=total damage to plant; 0=no damage to plant) (Avena fatua (AVEFA) [12])
C#CCOC(=O)OC1=C(c2c(C)cc(C)cc2C)C(=O)[C@@H]2[C@H]1[C@@]1(C)CC[C@]2(C)O1 (racemic) [Example P36] | 60 | 80 | 80 | 60 | 90 | 70 | 70 | 80 | 80 | 100 | 100 | 80 | – | –
Cc1cc(C)c(C2=C(O)[C@H]3[C@@H](C2=O)[C@@H]2CC[C@@]3(C)O2)c(C)c1 (racemic) [Example T9] | 80 | 80 | 100 | 70 | 100 | 60 | – | 100 | 100 | 100 | 100 | – | 70 | 40
CCc1cc(C)cc(CC)c1C1=C(O)[C@H]2[C@@H](C1=O)[C@@H]1C=C(C#C[Si](C)(C)C)[C@H]2O1 (racemic) [Example T11] | 40 | 70 | 80 | 30 | 70 | 20 | 30 | 20 | 0 | 60 | 30 | 40 | – | –
CCc1cc(C)cc(CC)c1C1=C(O)[C@H]2[C@@H](C1=O)[C@@H]1C=C[C@@]2(CO)O1 (racemic) [Example T13] | 80 | 100 | 50 | 90 | 100 | 90 | 80 | 100 | 100 | 90 | 100 | 80 | – | –
Cc1cc(C)c(C2=C(O)[C@H]3[C@@H](C2=O)[C@@H]2C=C[C@@]3(CO)O2)c(C)c1 (racemic) [Example T37] | 50 | 70 | 50 | 20 | 80 | 20 | 60 | 0 | 20 | 30 | 30 | 30 | – | –
CSC[C@]12C=C[C@H](O1)[C@@H]1C(=O)C(c3c(C)cc(C)cc3C)=C(O)[C@@H]12 (racemic) [Example T41] | 40 | 80 | 80 | 0 | 80 | 0 | 50 | 60 | 30 | 20 | 70 | 30 | – | –
CCCCC[C@]12C=C[C@H](O1)[C@@H]1C(=O)C(c3c(C)cc(C)cc3C)=C(O)[C@@H]12 (racemic) [Example T42] | 0 | 0 | 20 | 10 | 60 | 0 | 0 | 0 | 0 | 0 | 30 | 10 | – | –
Cc1cc(C)c(C2=C(O)[C@H]3[C@@H](C2=O)[C@@H]2C=C[C@@]3(CSC(C)C)O2)c(C)c1 (racemic) [Example T43] | 10 | 40 | 20 | 0 | 60 | 0 | 10 | 50 | 20 | 0 | 0 | 20 | – | –
CC1=C[C@@H]2O[C@H]1[C@H]1C(O)=C(c3c(C)cc(C)cc3C)C(=O)[C@H]12 (racemic) [Example T44] | 80 | 80 | 80 | 20 | 90 | 50 | 80 | 80 | 80 | 70 | 70 | 40 | – | –
COc1ccc([C@@H]2C[C@@H]3O[C@H]2[C@H]2C(O)=C(c4c(C)cc(C)cc4C)C(=O)[C@H]23)cc1 (racemic) [Example T57] | 70 | 70 | 70 | 40 | 80 | 70 | 50 | 80 | 60 | 100 | 70 | 30 | – | –
CSC1=C[C@@H]2O[C@@]1(C)[C@@H]1C(O)=C(c3c(C)cc(C)cc3C)C(=O)[C@H]21 (racemic) [Example T64] | 10 | 30 | 60 | 0 | 50 | 0 | 0 | 20 | 10 | 10 | 50 | 0 | – | –
Cc1cc(C)c(C2=C(O)[C@@H]3[C@@H]4O[C@@H](C[C@H]4c4ccc(F)cc4)[C@@H]3C2=O)c(C)c1 (racemic) [Example T70] | 90 | 70 | 70 | 70 | 80 | 70 | 80 | 90 | 90 | 100 | 100 | 50 | – | –
